Five compounds from paper PMC10175918 (Communications Biology, 2023) can be followed below.

Read-outs that look alike come from different tables or passages of the source.

Common to all, as to assay: TGFα-shedding assay-based GPCR screening with chimeric Gα subunit proteins
Holding throughout (format): cell-based

The target in assay [1] is T1, 348 GPCRs (Homo sapiens, UniProt Q9NYW7).
T1 construct: expressed in transfected cells; host or cells: HEK293A
T1 sequence (Q9NYW7 1-299): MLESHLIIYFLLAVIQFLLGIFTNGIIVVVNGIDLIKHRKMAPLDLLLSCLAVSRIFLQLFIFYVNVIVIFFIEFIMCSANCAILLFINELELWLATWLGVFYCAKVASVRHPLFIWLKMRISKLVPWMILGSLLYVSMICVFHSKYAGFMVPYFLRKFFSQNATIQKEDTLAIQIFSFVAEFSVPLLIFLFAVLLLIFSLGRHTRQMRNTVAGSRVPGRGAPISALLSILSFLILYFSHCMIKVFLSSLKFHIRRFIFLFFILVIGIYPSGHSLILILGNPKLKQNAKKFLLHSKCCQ
The note with it: 10µM, Favipiravir 100μM.

Assay [2] concerns the target T2, 348 GPCRs (Homo sapiens, UniProt Q9NQS5).
T2 construct: expressed in transfected cells; host or cells: HEK293A
The note with it: 10µM, Favipiravir 100μM.

Assay [3] has as its target T3, 348 GPCRs (Homo sapiens, UniProt P25929).
T3 construct: expressed in transfected cells; host or cells: HEK293A
T3 sequence (P25929 1-384): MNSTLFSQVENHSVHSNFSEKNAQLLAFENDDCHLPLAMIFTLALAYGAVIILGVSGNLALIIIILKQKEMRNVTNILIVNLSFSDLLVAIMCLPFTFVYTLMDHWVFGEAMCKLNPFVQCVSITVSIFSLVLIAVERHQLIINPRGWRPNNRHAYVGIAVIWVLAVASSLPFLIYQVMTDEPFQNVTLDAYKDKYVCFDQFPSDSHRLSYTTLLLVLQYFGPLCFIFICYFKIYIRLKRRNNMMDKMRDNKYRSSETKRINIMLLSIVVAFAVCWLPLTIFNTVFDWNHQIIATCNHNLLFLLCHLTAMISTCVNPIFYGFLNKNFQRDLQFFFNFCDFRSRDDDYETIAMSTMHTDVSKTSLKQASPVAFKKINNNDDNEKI
The note with it: 10µM, Favipiravir 100μM.

Assay [4] deals with T4, 348 GPCRs (Homo sapiens, UniProt P46095).
T4 construct: expressed in transfected cells; host or cells: HEK293A
T4 sequence (P46095 whole entry): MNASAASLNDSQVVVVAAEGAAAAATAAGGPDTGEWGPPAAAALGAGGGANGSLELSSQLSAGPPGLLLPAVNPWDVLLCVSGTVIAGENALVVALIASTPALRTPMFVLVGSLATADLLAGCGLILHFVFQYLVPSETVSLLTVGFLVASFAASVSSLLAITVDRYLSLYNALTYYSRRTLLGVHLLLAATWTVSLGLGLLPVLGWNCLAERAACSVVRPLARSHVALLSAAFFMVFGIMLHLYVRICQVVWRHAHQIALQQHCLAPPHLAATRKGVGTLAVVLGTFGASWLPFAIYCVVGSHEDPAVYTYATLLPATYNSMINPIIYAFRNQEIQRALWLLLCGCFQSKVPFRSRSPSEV

Assay [5] addresses T5, 348 GPCRs (Homo sapiens, UniProt Q9NYV7).
T5 construct: expressed in transfected cells; host or cells: HEK293A
T5 sequence (Q9NYV7 1-291): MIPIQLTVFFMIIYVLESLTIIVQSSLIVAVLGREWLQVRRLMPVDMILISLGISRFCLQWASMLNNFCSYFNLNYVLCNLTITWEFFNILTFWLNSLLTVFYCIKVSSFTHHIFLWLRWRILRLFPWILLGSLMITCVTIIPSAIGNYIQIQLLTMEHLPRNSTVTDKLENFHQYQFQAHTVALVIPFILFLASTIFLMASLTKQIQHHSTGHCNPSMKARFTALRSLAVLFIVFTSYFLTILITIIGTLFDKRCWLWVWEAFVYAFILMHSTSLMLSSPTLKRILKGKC
The note with it: 10µM, Favipiravir 100μM.

For assay [6], the target named is T6, 348 GPCRs (Homo sapiens, UniProt Q96RI9).
T6 construct: expressed in transfected cells; host or cells: HEK293A
T6 sequence (Q96RI9 1-348): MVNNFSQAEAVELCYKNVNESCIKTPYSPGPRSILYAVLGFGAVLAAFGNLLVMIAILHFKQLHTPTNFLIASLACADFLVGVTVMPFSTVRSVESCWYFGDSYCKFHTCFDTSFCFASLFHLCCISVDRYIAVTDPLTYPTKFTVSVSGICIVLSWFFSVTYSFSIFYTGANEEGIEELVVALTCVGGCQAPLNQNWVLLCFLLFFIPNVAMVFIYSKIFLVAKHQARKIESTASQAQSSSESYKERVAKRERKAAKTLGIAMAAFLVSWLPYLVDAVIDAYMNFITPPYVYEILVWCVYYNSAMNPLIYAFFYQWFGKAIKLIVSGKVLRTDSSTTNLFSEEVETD
The note with it: 10µM, Favipiravir 100μM.

For assay [7], the target named is T7, 348 GPCRs (Homo sapiens, UniProt P47898).
T7 construct: expressed in transfected cells; host or cells: HEK293A
T7 sequence (P47898 whole entry): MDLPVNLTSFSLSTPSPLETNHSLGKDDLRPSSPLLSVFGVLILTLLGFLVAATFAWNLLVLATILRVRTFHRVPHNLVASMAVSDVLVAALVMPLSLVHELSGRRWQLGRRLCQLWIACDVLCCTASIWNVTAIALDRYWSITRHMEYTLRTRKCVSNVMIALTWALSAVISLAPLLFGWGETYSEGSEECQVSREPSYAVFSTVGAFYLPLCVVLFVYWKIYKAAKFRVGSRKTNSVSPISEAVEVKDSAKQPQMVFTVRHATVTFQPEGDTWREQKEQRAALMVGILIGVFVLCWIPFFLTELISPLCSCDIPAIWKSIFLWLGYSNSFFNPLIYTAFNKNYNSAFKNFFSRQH
The note with it: 10µM, Favipiravir 100μM.

Assay [8] concerns the target T8, 348 GPCRs (Homo sapiens, UniProt P48146).
T8 construct: expressed in transfected cells; host or cells: HEK293A
The note with it: 10µM, Favipiravir 100μM.

Assay [9] addresses T9, 348 GPCRs (Homo sapiens, UniProt Q86SQ6).
T9 construct: expressed in transfected cells; host or cells: HEK293A
T9 sequence (Q86SQ6 1-560): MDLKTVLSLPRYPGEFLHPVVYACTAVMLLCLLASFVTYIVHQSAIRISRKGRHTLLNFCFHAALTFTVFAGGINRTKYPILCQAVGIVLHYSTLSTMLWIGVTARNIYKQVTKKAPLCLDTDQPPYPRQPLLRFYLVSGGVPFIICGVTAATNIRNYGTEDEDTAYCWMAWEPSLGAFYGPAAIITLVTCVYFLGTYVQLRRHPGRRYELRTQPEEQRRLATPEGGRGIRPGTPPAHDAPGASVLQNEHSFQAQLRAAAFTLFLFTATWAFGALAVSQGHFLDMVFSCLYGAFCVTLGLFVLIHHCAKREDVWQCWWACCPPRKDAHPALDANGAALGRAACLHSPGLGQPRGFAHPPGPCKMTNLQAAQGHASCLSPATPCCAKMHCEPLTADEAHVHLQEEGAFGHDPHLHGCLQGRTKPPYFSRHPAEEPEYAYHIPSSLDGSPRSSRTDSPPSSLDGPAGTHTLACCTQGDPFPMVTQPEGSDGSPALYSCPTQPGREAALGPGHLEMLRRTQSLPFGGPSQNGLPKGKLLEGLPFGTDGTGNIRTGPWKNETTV

Assay [10] concerns the target T10, 348 GPCRs (Homo sapiens, UniProt P47900).
T10 construct: expressed in transfected cells; host or cells: HEK293A
The note with it: GPCR P2Y1 (purinergic receptor P2Y, G-protein coupled, 1).

[11] abbreviates: TAS2R1 (taste receptor, type 2, member 1), read-out: % GPCR activation compared to TPA.
Setting [12] is: GPR84 (G protein-coupled receptor 84), read-out: % GPCR activation compared to TPA.
[13] abbreviates: NPY1R (neuropeptide Y receptor Y1), read-out: % GPCR activation compared to TPA.
The mark [14] stands for this setting: GPCR GPR6 (G protein-coupled receptor 6), read-out: % GPCR activation compared to TPA.
Where [15] appears, read: TAS2R16 (taste receptor, type 2, member 16), read-out: % GPCR activation compared to TPA.
[16] abbreviates: TAAR9 (trace amine associated receptor 9), read-out: % GPCR activation compared to TPA.
[17] abbreviates: 5-HT5A (5-hydroxytryptamine receptor 5A), read-out: % GPCR activation compared to TPA.
[18] abbreviates: NPBWR2 (neuropeptides B and W receptor 2), read-out: % GPCR activation compared to TPA.
Setting [19] is: GPCR GPR123 (Adhesion G Protein-Coupled Receptor A1 (ADGRA1)), read-out: % GPCR activation compared to TPA.
Setting [20] is: read-out: % GPCR activation compared to TPA, TAS2R1 (taste receptor, type 2, member 1).
The mark [21] stands for this setting: read-out: % GPCR activation compared to TPA, GPR84 (G protein-coupled receptor 84).
The mark [22] stands for this setting: read-out: % GPCR activation compared to TPA, NPY1R (neuropeptide Y receptor Y1).
The mark [23] stands for this setting: read-out: % GPCR activation compared to TPA, GPCR GPR6 (G protein-coupled receptor 6).
Where [24] appears, read: read-out: % GPCR activation compared to TPA, TAS2R16 (taste receptor, type 2, member 16).
The mark [25] stands for this setting: read-out: % GPCR activation compared to TPA, TAAR9 (trace amine associated receptor 9).
[26] abbreviates: read-out: % GPCR activation compared to TPA, 5-HT5A (5-hydroxytryptamine receptor 5A).
Where [27] appears, read: read-out: % GPCR activation compared to TPA, NPBWR2 (neuropeptides B and W receptor 2).
[28] abbreviates: read-out: % GPCR activation compared to TPA, GPCR GPR123 (Adhesion G Protein-Coupled Receptor A1 (ADGRA1)).

T2 sequence (Q9NQS5 whole entry): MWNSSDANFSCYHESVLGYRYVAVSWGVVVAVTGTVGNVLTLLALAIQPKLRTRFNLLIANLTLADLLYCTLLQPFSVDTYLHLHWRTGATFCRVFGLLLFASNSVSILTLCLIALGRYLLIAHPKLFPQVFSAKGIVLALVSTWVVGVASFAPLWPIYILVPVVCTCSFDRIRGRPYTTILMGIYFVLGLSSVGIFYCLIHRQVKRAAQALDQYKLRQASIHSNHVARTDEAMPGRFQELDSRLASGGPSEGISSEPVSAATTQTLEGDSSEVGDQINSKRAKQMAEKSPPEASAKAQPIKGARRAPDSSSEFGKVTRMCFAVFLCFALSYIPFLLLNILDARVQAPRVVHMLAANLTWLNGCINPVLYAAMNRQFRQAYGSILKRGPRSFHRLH
T8 sequence (P48146 whole entry): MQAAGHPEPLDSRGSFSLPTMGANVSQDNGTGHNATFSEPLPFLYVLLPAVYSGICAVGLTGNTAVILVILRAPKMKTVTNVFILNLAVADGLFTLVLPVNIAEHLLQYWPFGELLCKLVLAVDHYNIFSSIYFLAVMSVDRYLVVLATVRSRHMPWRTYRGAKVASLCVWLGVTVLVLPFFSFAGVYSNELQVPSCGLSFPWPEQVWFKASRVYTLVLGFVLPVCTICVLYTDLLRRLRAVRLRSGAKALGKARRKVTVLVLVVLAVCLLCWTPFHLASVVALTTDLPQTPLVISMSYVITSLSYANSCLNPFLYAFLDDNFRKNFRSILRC
T10 sequence (P47900 whole entry): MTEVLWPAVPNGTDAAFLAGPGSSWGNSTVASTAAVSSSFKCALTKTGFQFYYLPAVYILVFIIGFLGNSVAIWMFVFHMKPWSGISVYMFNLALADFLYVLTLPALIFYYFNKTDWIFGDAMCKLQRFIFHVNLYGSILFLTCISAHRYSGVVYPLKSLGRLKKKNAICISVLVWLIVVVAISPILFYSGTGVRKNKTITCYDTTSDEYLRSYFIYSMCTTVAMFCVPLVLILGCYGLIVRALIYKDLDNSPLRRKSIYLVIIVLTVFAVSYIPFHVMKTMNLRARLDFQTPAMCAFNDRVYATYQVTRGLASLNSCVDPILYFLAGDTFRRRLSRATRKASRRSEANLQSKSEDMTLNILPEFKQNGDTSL

Take `CC(C)C(=O)OC[C@H]1O[C@@H](n2ccc(NO)nc2=O)[C@H](O)[C@@H]1O` [molnupiravir]: the activation at 100 µM at 348 GPCRs [1] (setting [11]) was -0.93%; at 348 GPCRs [2] (setting [12]) it was -3.53%; at 348 GPCRs [3] (setting [13]), -1.55%; at 348 GPCRs [5] (setting [15]), -0.65%; at 348 GPCRs [6] (setting [16]), -1.9%; on 348 GPCRs [7] (setting [17]) it was -1.01%. The activation at 10 µM is -0.366% at 348 GPCRs [4] (setting [14]), -2.92% on 348 GPCRs [8] (setting [18]) and -2.47% at 348 GPCRs [9] (setting [19]). Further, the “% GPCR activation compared to TPA” value on 348 GPCRs [10] (10µM) was -11.8258%.
With `CC(C)OC(=O)[C@H](C)N[P@](=O)(OC[C@H]1O[C@@H](n2ccc(=O)[nH]c2=O)[C@](C)(F)[C@@H]1O)Oc1ccccc1` [sofosbuvir], the activation at 100 µM on 348 GPCRs [1] (setting [20]) is -0.974%; at 348 GPCRs [2] (setting [21]), -3.67%; at 348 GPCRs [3] (setting [22]), -0.539%; at 348 GPCRs [5] (setting [24]) it was -1%; on 348 GPCRs [6] (setting [25]) it was -1.74%; on 348 GPCRs [7] (setting [26]) it was -0.524%. For the same compound, the activation at 10 µM is -0.69% at 348 GPCRs [4] (setting [23]), -2.75% at 348 GPCRs [8] (setting [27]) and 0.445% on 348 GPCRs [9] (setting [28]). Further, the “% GPCR activation compared to TPA” value at 348 GPCRs [10] (10µM) is reported as -4.632%.
In the case of `N#C[C@@]1(c2ccc3c(N)ncnn23)O[C@H](CO)[C@@H](O)[C@H]1O` [GS441524], the activation at 100 µM is -0.408% at 348 GPCRs [1] (setting [11]); 5.15% at 348 GPCRs [2] (setting [12]); -0.88% on 348 GPCRs [3] (setting [13]); -2.06% at 348 GPCRs [5] (setting [15]); -2.32% on 348 GPCRs [6] (setting [16]); -3.98% at 348 GPCRs [7] (setting [17]). The activation at 10 µM on 348 GPCRs [4] (setting [14]) is 5.11%; on 348 GPCRs [8] (setting [18]) it was -1.66%; at 348 GPCRs [9] (setting [19]), 0.375%. Moreover, at 348 GPCRs [10] (10µM), the “% GPCR activation compared to TPA” value is -0.4592%.
`NC(=O)c1nc(F)cnc1O` [favipiravir, 6-fluoro-3-hydroxy-2-pyrazinecarboxamide]: the activation at 100 µM was -0.27% on 348 GPCRs [1] (setting [11]); -0.768% at 348 GPCRs [2] (setting [12]); -1.15% at 348 GPCRs [3] (setting [13]); 1.83% on 348 GPCRs [4] (GPCR GPR6 (G protein-coupled receptor 6), 100μM, read-out: % GPCR activation compared to TPA); 0.411% at 348 GPCRs [5] (setting [15]); -0.821% at 348 GPCRs [6] (setting [16]). The activation at 100 µM on 348 GPCRs [7] (setting [17]) was -2.45%; at 348 GPCRs [9] (GPCR GPR123 (Adhesion G Protein-Coupled Receptor A1 (ADGRA1)), 100μM, read-out: % GPCR activation compared to TPA), -1.45%. Also, the activation at 10 µM at 348 GPCRs [8] (setting [18]) was -4.53%. For the same compound, on 348 GPCRs [10] (100μM), the “% GPCR activation compared to TPA” value was found to be 0.4296%.
As to `CCC(CC)COC(=O)[C@H](C)N[P@](=O)(OC[C@H]1O[C@@](C#N)(c2ccc3c(N)ncnn23)[C@H](O)[C@@H]1O)Oc1ccccc1` [remdesivir], the activation at 100 µM on 348 GPCRs [1] (setting [20]) is 0.931%; on 348 GPCRs [2] (setting [21]), 2.57%; on 348 GPCRs [3] (setting [22]) it was 0.0788%; at 348 GPCRs [5] (setting [24]), 0.556%; at 348 GPCRs [6] (setting [25]) it was 0.293%; on 348 GPCRs [7] (setting [26]), -0.876%. Moreover, the activation at 10 µM on 348 GPCRs [4] (setting [23]) is 7.41%; at 348 GPCRs [8] (setting [27]), -4.48%; on 348 GPCRs [9] (setting [28]) it was -0.903%. The “% GPCR activation compared to TPA” value at 348 GPCRs [10] (10µM) worked out at 11.0377%.
